Patent US20260209203A1, “Heterocyclic Compounds as Modulators of S1P5” (Celgene Corporation, priority 2022, published 2026)

Molecular target: S1P5 (Homo sapiens, UniProt Q9H228)
Experiment: [35S]-GTPγS functional binding assay on CHO-S1P5 membranes
Format: biochemical
Details: membranes of CHO cells expressing recombinant S1P5; measure of S1P5 agonism
Procedure: CHO cells expressing recombinant S1P5 receptors were cultured in 500 cm^2 culture trays and, once confluent, rinsed and detached with cell-lifting buffer (10 mM HEPES, 154 mM NaCl, 6.85 mM EDTA, pH 7.4). Cells were then pelleted by centrifugation, resuspended, and homogenized in membrane preparation buffer (10 mM HEPES and 10 mM EDTA, pH 7.4) using a Polytron PT 1200E homogenizer (Kinematica, Luzern, Switzerland). Cellular proteins were pelleted by centrifugation at 48,000×g at 4° C. for 30 minutes. The resulting supernatant was discarded, and the pellet was re-suspended again in membrane preparation buffer, homogenized for a second time, and then centrifuged again as described above. The final cellular protein pellet was suspended in ice cold resuspension buffer (10 mM HEPES and 0.1 mM EDTA, pH 7.4), divided into aliquots, and stored at −80° C. until use.
Functional binding assays for [^35S]-GTPγS were performed in 96-well non-binding surface plates with a final volume of 200 μL. The test compounds were serially diluted in DMSO and added to assay plates using a Tecan D300E digital printer with a total volume of 0.4 μL. The control sphingosine-1-phosphate (S1P) was prepared separately by preparing a 400 μM stock solution from a 100 nmol pellet of SIP in 10 mM Na2CO3 with 2% β-cyclodextrin. The serial dilution of S1P was done using complete assay buffer (20 mM HEPES, 10 mM MgCl2, 100 mM NaCl, 1 mM EDTA, 0.1% fatty acid free bovine serum albumin (BSA), and 30 μg/mL saponin, pH 7.4) and transferred to wells already containing 0.4 μL DMSO. All the wells were then loaded to a total volume of 40 μL of complete assay buffer, except the non-specific binding (NSB) wells. For NSB wells, 40 μL/well of 50 μM GTPγS (Sigma Aldrich, cat #G8634, St. Louis, MO) was added to wells containing 0.4 μL of DMSO. The assay was started by the addition of 120 μL/well of CHO—S1P receptor membrane solution containing 40 μg/mL of membrane protein, 16.67 μM guanosine diphosphate (GDP; Sigma Aldrich, cat #G7127, St. Louis, MO), and 2.5 mg/mL of WGA PVT SPA beads in complete buffer. Assay plates were then sealed and incubated at room temperature with gentle agitation for 30 minutes. Next, 40 μL/well of 1 nM of [^35S]-GTPγS (PerkinElmer, cat #NEG030X250UC, Waltham, MA) in basic assay buffer (20 mM HEPES, 10 mM MgCl2, 100 mM NaCl, and 1 mM EDTA, pH7.4) was added to the assay plates to yield a final concentration of 200 pM and the plates were further incubated for 40 minutes at room temperature with gentle agitation. The assay was terminated by centrifugation of the plates at 1000 rpm for 3 minutes using an Eppendorf 5810R centrifuge (Eppendorf, Hamburg, Germany) and G protein bound radioactivity was quantitated using a MicroBeta2 microplate scintillation counter (PerkinElmer, Waltham, MA). As G protein bound radioactivity directly correlates to receptor activation and coupling to the G protein, this assay is a measure of S1P5 agonism.

Chain of S1P5 (Q9H228 whole entry, species assumed): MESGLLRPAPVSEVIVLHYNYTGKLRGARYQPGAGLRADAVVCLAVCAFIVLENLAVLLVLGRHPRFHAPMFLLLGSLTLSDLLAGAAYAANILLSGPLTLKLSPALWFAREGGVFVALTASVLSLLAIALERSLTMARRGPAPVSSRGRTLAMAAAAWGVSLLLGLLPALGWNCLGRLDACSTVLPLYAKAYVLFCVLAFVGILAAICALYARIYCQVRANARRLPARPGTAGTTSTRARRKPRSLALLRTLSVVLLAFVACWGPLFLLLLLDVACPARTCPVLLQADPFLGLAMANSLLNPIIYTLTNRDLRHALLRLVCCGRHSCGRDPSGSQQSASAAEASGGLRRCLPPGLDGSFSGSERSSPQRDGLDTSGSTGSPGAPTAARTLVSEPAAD

Compound	EC50 [nM]
Cc1cc(C2CN(c3c(Cl)cccc3Cl)C2)cc(C)c1CN1CCC(C(=O)N(C)CCO)CC1 [Compound 11, 1-(4-(1-(2,6-dichlorophenyl)-azetidin-3-yl)-2,6-dimethyl-benzyl)-N-(2-hydroxyethyl)-N-methylpiperidine-4-carbox-amide]	100 to 1000
Cc1cc(C2CN(c3c(Cl)cccc3Cl)C2)cc(C)c1CN1CCC(C(=O)NC2CCC(N(C)C)CC2)CC1 (centres unmarked) [Compound 20, 1-(4-(1-(2,6-dichlorophenyl)-azetidin-3-yl)-2,6-dimethyl-benzyl)-N-(4-(dimethyl-amino)-cyclohexyl)piper-idine-4-carboxamide]	1000 to 10000
Cc1cc(C2CN(c3c(Cl)cccc3Cl)C2)cc(C)c1CN1CCC(C(=O)N2CCC(O)CC2)CC1 [Compound 12, (1-(4-(1-(2,6-dichlorophenyl)-azetidin-3-yl)-2,6-dimethyl-benzyl)-piperidin-4-yl)(4-hydroxy-piperidin-1-yl)-methanone]	100 to 1000
Cc1cc(C2CN(c3c(Cl)cccc3Cl)C2)cc(C)c1CN1CCC(C(=O)N2CCCCC2)CC1 [Compound 26, (1-(4-(1-(2,6-dichlorophenyl)-azetidin-3-yl)-2,6-dimethyl-benzyl)-piperidin-4-yl)(piper-idin-1-yl)methanone]	1000 to 10000
Cc1cc(C2CN(c3c(Cl)cccc3Cl)C2)cc(C)c1CN1CCC(C(=O)N2CCN(C)CC2)CC1 [Compound 8, (1-(4-(1-(2,6-dichlorophen-yl)azetidin-3-yl)-2,6-dimeth-ylbenzyl)-piperidin-4-yl)(4-methyl-piperazin-1-yl)-methanone]	100 to 1000
Cc1cc(C2CN(c3c(Cl)cccc3Cl)C2)cc(C)c1CN1CCC(C(=O)NC2CC2)CC1 [Compound 4, N-cyclopropyl-1-(4-(1-(2,6-dichlorophenyl)-azetidin-3-yl)-2,6-dimethylbenzyl)-piperidine-4-carboxamide]	10 to 100
Cc1cc(C2CN(c3c(Cl)cccc3Cl)C2)cc(C)c1CN1CCC(C(=O)N(C)CCN(C)C)CC1 [Compound 13, 1-(4-(1-(2,6-dichlorophenyl)-azetidin-3-yl)-2,6-dimethyl-benzyl)-N-(2-(dimethyl-amino)ethyl)-N-methylpiper-idine-4-carboxamide]	100 to 1000
Cc1cc(C2CN(c3c(Cl)cccc3Cl)C2)cc(C)c1CN1CCC(C(=O)N2CCC(N(C)C)CC2)CC1 [Compound 22, (1-(4-(1-(2,6-dichlorophenyl)-azetidin-3-yl)-2,6-dimethyl-benzyl)piperidin-4-yl)(4-(dimethylamino)piperidin-1-yl)methanone]	1000 to 10000
Cc1cc(C2CN(c3c(Cl)cccc3Cl)C2)cc(C)c1CN1CCC(C(=O)NCC2CC2)CC1 [Compound 5, N-(cyclopropylmethyl)-1-(4-(1-(2,6-dichlorophenyl)-azetidin-3-yl)-2,6-dimethyl-benzyl)piperidine-4-carbox-amide]	10 to 100
Cc1cc(C2CN(c3c(Cl)cccc3Cl)C2)cc(C)c1CN1CCC(C(=O)NCCC(C)C)CC1 [Compound 21, 1-(4-(1-(2,6-dichlorophenyl)-azetidin-3-yl)-2,6-dimethyl-benzyl)-N-isopentyl-piper-idine-4-carboxamide]	1000 to 10000
Cc1cc(C2CN(c3c(Cl)cccc3Cl)C2)cc(C)c1CN1CCC(C(=O)NC2CCCCC2)CC1 [Compound 17, N-cyclohexyl-1-(4-(1-(2,6-dichlorophenyl)azetidin-3-yl)-2,6-dimethylbenzyl)-piperidine-4-carboxamide]	1000 to 10000
COC1CCN(C(=O)C2CCN(Cc3c(C)cc(C4CN(c5c(Cl)cccc5Cl)C4)cc3C)CC2)CC1 [Compound 14, (1-(4-(1-(2,6-dichlorophenyl)-azetidin-3-yl)-2,6-dimethyl-benzyl)-piperidin-4-yl)(4-methoxy-piperidin-1-yl)-methanone]	100 to 1000
Cc1cc(C2CN(c3c(Cl)cccc3Cl)C2)cc(C)c1CN1CCC(C(=O)NCCN2CCCC2)CC1 [Compound 19, 1-(4-(1-(2,6-dichlorophenyl)-azetidin-3-yl)-2,6-dimethyl-benzyl)-N-(2-(pyrrolidin-1-yl)ethyl)-piperidine-4-carbox-amide]	1000 to 10000
Cc1cc(C2CN(c3c(Cl)cccc3Cl)C2)cc(C)c1CN1CCC(C(=O)NCC2CCCCC2)CC1 [Compound 18, N-(cyclohexylmethyl)-1-(4-(1-(2,6-dichlorophenyl)-azetidin-3-yl)-2,6-dimethyl-benzyl)piperidine-4-carbox-amide]	1000 to 10000
Cc1cc(C2CN(c3c(Cl)cccc3Cl)C2)cc(C)c1CN1CCC(C(=O)N(C)C(C)C)CC1 [Compound 16, 1-(4-(1-(2,6-dichlorophenyl)-azetidin-3-yl)-2,6-dimethyl-benzyl)-N-isopropyl-N-meth-yl-piperidine-4-carboxamide]	1000 to 10000
COCCNC(=O)C1CCN(Cc2c(C)cc(C3CN(c4c(Cl)cccc4Cl)C3)cc2C)CC1 [Compound 3, 1-(4-(1-(2,6-dichlorophenyl)-azetidin-3-yl)-2,6-dimethyl-benzyl)-N-(2-methoxyethyl)-piperidine-4-carboxamide]	1 to 10
Cc1cc(C2CN(c3c(Cl)cccc3Cl)C2)cc(C)c1CN1CCC(C(=O)NC2CCCC2)CC1 [Compound 15, N-cyclopentyl-1-(4-(1-(2,6-dichlorophenyl)-azetidin-3-yl)-2,6-dimethylbenzyl)-piperidine-4-carboxamide]	1000 to 10000
CNC(=O)C1CCN(Cc2c(C)cc(C3CN(c4c(Cl)cccc4Cl)C3)cc2C)CC1 [Compound 1, 1-(4-(1-(2,6-dichlorophenyl)-azetidin-3-yl)-2,6-dimethyl-benzyl)-N-methylpiperidine-4-carboxamide]	1 to 10
Cc1cc(C2CN(c3c(Cl)cccc3Cl)C2)cc(C)c1CN1CCC(C(=O)N2CCC(O)C2)CC1 (centres unmarked) [Compound 24, (1-(4-(1-(2,6-dichlorophenyl)-azetidin-3-yl)-2,6-dimethyl-benzyl)-piperidin-4-yl)(3-hydroxypyrrolidin-1-yl)-methanone]	1000 to 10000
Cc1cc(C2CN(c3c(Cl)cccc3Cl)C2)cc(C)c1CN1CCC(C(=O)NC2CCC2)CC1 [Compound 6, N-cyclobutyl-1-(4-(1-(2,6-dichlorophenyl)azetidin-3-yl)-2,6-dimethylbenzyl)-piperidine-4-carboxamide]	10 to 100
Cc1cc(C2CN(c3c(Cl)cccc3Cl)C2)cc(C)c1CN1CCC(C(=O)N2CCOCC2)CC1 [Compound 9, (1-(4-(1-(2,6-dichlorophen-yl)azetidin-3-yl)-2,6-dimeth-ylbenzyl)-piperidin-4-yl)-(morpholino)methanone]	100 to 1000
Cc1cc(C2CN(c3c(Cl)cccc3Cl)C2)cc(C)c1CN1CCC(C(=O)N(C)C2CC2)CC1 [Compound 25, N-cyclopropyl-1-(4-(1-(2,6-dichlorophenyl)-azetidin-3-yl)-2,6-dimethylbenzyl)-N-methylpiperidine-4-carbox-amide]	1000 to 10000
Cc1cc(C2CN(c3c(Cl)cccc3Cl)C2)cc(C)c1CN1CCC(C(=O)NCC(C)C)CC1 [Compound 10, 1-(4-(1-(2,6-dichlorophenyl)-azetidin-3-yl)-2,6-dimethyl-benzyl)-N-isobutylpiperidine-4-carboxamide]	100 to 1000
Cc1cc(C2CN(c3c(Cl)cccc3Cl)C2)cc(C)c1CN1CCC(C(=O)NC2CCC(O)CC2)CC1 (centres unmarked) [Compound 7, 1-(4-(1-(2,6-dichlorophenyl)-azetidin-3-yl)-2,6-dimethyl-benzyl)-N-(4-hydroxycyclo-hexyl)-piperidine-4-carbox-amide]	100 to 1000
Cc1cc(C2CN(c3c(Cl)cccc3Cl)C2)cc(C)c1CN1CCC(C(=O)N(C)C)CC1 [Compound 2, 1-(4-(1-(2,6-dichlorophenyl)-azetidin-3-yl)-2,6-dimethyl-benzyl)-N,N-dimethylpiper-idine-4-carboxamide]	1 to 10
Cc1cc(C2CN(c3c(Cl)cccc3Cl)C2)cc(C)c1CN1CCC(C(=O)N(C)CC(C)C)CC1 [Compound 23, 1-(4-(1-(2,6-dichlorophenyl)-azetidin-3-yl)-2,6-dimethyl-benzyl)-N-isobutyl-N-meth-ylpiperidine-4-carboxamide]	1000 to 10000
